Experimental data published in patent US11306399B2, “Nanoparticle compositions” (JANUARY THERAPEUTICS, INC., priority 2019, dated 2022).

Test system: human patient-derived xenograft (PDX) derived from a human ovarian tumor (CTG-1180, Champions Oncology)
Assay: In vivo xenograft efficacy (human ovarian tumor PDX) in tumor-bearing mice
Set-up: species or system Athymic Nude-Foxn1nu mice
Experimental: A nanoparticle composition comprising Compound 1 and albumin from Example 2 was tested in an in vivo xenograft efficacy model in tumor-bearing mice. Athymic Nude-Foxn1nu mice were implanted subcutaneously with a human patient-derived xenograft (PDX) derived from a human ovarian tumor (CTG-1180, Champions Oncology). Tumors were allowed grow to ˜200 cubic mm before commencement of treatment (day 0). Lyophilized nanoparticle formulations of Compound 1 were rehydrated in 5% dextrose in sterile water (D5W) immediately prior to dosing. Mice were then dosed intravenously with various concentrations of gemcitabine, nanoparticle formulation of Compound 1, or vehicle control (dissolved directly in D5W and dosed in mg of gemcitabine/compound 1 per kg of mouse body weight abbreviated as mpk) once weekly for 4 weeks (mice were dosed on day 0, 7, 14, and 21 with no treatments thereafter). […] Tumor volume was assessed by caliper measurement using the following formula: Tumor volume=width^2×length×0.52. Tumor growth inhibition (TGI) at day 28 was assessed using the following formula: […]. […]

Nc1ccn([C@@H]2O[C@H](CO)[C@@H](O)C2(F)F)c(=O)n1 [gemcitabine, 2′,2′-difluoro-2′-deoxycytidine]
Tumor growth inhibition (TGI) at day 28 (40 mpk (152 μmol/kg) intravenously once weekly for 4 weeks (day 0, 7, 14, 21)): 88% | Tumor growth inhibition (TGI) at day 28 (100 mpk (380 μmol/kg) intravenously once weekly for 4 weeks (day 0, 7, 14, 21)): 98%
